ChEMBL document CHEMBL5126603, “Discovery of Clinical Candidate CHF-6366: A Novel Super-soft Dual Pharmacology Muscarinic Antagonist and β2 Agonist (MABA) for the Inhaled Treatment of Respiratory Diseases” (J Med Chem, 2022)

What was measured:
[1] = Metabolic stability in rat lung S9 fraction assessed as half life at 1 uM measured after 0 to 60 mins in presence of NADPH by LC-MS/MS analysis; type: ADME, subcellular; details: time 0-60 min
[2] = Metabolic stability in human hepatocytes assessed as clearance at 1 uM measured per 10^6 cells and incubated upto 90 mins by LC-MS/MS analysis; type: ADME, cell-based, Hepatocyte; details: read-out: CLH
[3] = Metabolic stability in Dunkin-Hartley guinea pig hepatocytes assessed as clearance at 1 uM measured per 10^6 cells and incubated upto 90 mins by LC-MS/MS analysis; type: ADME, cell-based, Cavia porcellus, Hepatocyte; details: read-out: CLH
[4] = Metabolic stability in rat hepatocytes assessed as clearance at 1 uM measured per 10^6 cells and incubated upto 90 mins by LC-MS/MS analysis; type: ADME, cell-based, Hepatocyte; details: read-out: CLH
[5] = Metabolic stability in human liver microsomes assessed as clearance at 1 uM measured per mg protein incubated upto 60 mins in presence of NADPH by LC-MS/MS analysis; type: ADME, Microsome; details: read-out: CLH
[6] = Metabolic stability in rat liver microsomes assessed as clearance at 1 uM measured per mg protein incubated upto 60 mins in presence of NADPH by LC-MS/MS analysis; type: ADME, Microsome; details: read-out: CLH
[7] = Metabolic stability in human lung S9 fraction assessed as half life at 1 uM measured after 0 to 60 mins in presence of NADPH by LC-MS/MS analysis; type: ADME, subcellular; details: time 0-60 min
[8] = Metabolic stability in Dunkin-Hartley guinea pig lung S9 fraction assessed as half life at 1 uM measured after 0 to 60 mins in presence of NADPH by LC-MS/MS analysis; type: ADME, subcellular, Cavia porcellus; details: time 0-60 min
[9] = Apparent permeability across apical to basolateral side in human Caco-2 cells at 10 uM and measured after 2 hrs by LC-MS/MS analysis; type: ADME, cell-based
[10] = Apparent permeability across basolateral to apical side in human Caco-2 cells at 10 uM and measured after 2 hrs by LC-MS/MS analysis; type: ADME, cell-based
[11] = Cmax in Dunkin-Hartley guinea pig lung at 500 nmol/Kg, IT(Intratracheal) measured after 72 hrs by LC/MS-MS analysis; type: ADME, tissue-based, Cavia porcellus; set-up: time 72 hrs, dose 500 nmol/kg, route it(Intratracheal); details: inhaled or intranasal
[12] = Tmax in Dunkin-Hartley guinea pig lung at 500 nmol/Kg, IT(Intratracheal) measured after 72 hrs by LC/MS-MS analysis; type: ADME, tissue-based, Cavia porcellus; details: inhaled or intranasal
[13] = AUClast in Dunkin-Hartley guinea pig plasma at 500 nmol/Kg, IT(Intratracheal) measured after 72 hrs by LC/MS-MS analysis; type: ADME, cell-free, Cavia porcellus; set-up: time 72 hrs, dose 500 nmol/kg, route it(Intratracheal); details: inhaled or intranasal
[14] = AUCinfinity in Dunkin-Hartley guinea pig plasma at 500 nmol/Kg, IT(Intratracheal) measured after 72 hrs by LC/MS-MS analysis; type: ADME, cell-free, Cavia porcellus; set-up: dose 500 nmol/kg, time 72 hrs, route it(Intratracheal); details: inhaled or intranasal
Trachea [15] = assay: In vivo bifunctional antagonist activity at muscarinic M3 receptor /agonist activity at beta-2 adrenoceptor in Dunkin-Hartley guinea pig trachea assessed as time duration for inhibition of carbachol induced contraction measured […]; type: functional, Cavia porcellus
Trachea [16] = assay: Bifunctional antagonist activity at muscarinic M3 receptor /agonist activity at beta-2 adrenoceptor in Dunkin-Hartley guinea pig trachea assessed as inhibition of acetylcholine-induced bronchoconstriction at 1 nmol/Kg, IT(Intratracheal) measured after 5 mins by Konzett-Roessler methodology relative to control; type: functional; details: Cavia porcellus
Trachea [17] = assay: Bifunctional antagonist activity at muscarinic M3 receptor /agonist activity at beta-2 adrenoceptor in Dunkin-Hartley guinea pig trachea assessed as inhibition of acetylcholine-induced bronchoconstriction at 1 nmol/Kg, IT(Intratracheal) measured after 30 mins by Konzett-Roessler methodology relative to control; type: functional; details: Cavia porcellus, 0.5 h
[18] = biological target: 5-hydroxytryptamine receptor 2A (Homo sapiens) (UniProt P28223); assay: Inhibition of 5-HT2a (unknown origin) at 10 uM relative to control
Chain of 5-hydroxytryptamine receptor 2A (Homo sapiens) (P28223 whole entry): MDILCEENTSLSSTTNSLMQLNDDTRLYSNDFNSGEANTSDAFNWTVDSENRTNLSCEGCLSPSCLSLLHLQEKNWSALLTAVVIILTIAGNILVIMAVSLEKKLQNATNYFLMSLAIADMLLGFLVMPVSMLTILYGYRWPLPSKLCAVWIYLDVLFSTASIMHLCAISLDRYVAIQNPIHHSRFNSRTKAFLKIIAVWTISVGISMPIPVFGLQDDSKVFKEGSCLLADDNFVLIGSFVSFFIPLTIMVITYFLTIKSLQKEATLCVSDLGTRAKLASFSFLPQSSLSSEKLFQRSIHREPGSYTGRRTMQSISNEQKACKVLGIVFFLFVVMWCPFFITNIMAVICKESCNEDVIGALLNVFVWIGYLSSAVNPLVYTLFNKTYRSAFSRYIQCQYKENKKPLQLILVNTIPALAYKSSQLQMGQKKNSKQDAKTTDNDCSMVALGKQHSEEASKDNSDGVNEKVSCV

[19] = biological target: T1, 5-hydroxytryptamine receptor 2C (Homo sapiens) (UniProt P28335); assay: Inhibition of 5-HT2c (unknown origin) at 10 uM relative to control
T1 sequence (whole entry): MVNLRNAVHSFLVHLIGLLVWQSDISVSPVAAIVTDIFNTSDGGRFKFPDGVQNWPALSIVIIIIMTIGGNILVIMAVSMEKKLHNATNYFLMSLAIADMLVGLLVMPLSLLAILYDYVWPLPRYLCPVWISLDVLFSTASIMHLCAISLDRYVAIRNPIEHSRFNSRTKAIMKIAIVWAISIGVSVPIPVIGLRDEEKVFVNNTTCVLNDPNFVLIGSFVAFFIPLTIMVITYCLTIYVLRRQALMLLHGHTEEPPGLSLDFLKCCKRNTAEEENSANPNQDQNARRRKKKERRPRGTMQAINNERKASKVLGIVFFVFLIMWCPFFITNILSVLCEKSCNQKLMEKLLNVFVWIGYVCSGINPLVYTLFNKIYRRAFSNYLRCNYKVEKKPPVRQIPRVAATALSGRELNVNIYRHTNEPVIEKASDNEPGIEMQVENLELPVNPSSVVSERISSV

[20] = biological target: Sodium-dependent serotonin transporter (Homo sapiens) (UniProt P31645); assay: Inhibition of serotonin transporter (unknown origin) at 10 uM relative to control
Chain of Sodium-dependent serotonin transporter (Homo sapiens) (P31645 whole entry, looked up): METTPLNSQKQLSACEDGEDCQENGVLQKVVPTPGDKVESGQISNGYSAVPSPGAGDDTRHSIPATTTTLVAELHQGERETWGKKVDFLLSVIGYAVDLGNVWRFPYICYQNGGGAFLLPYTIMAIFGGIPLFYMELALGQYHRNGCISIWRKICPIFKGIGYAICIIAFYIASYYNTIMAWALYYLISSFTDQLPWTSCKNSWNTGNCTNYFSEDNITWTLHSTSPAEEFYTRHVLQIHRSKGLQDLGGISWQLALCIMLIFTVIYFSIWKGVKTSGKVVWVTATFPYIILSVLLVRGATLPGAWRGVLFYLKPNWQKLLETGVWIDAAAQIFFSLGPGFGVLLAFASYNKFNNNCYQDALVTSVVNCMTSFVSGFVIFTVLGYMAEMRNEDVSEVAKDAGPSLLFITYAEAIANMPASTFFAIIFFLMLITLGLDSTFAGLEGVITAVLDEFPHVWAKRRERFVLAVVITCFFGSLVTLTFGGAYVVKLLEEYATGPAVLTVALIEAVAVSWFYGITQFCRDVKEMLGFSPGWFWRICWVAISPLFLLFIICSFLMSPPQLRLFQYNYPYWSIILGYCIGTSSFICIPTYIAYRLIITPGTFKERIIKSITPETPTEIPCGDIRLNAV

[21] = biological target: L-type calcium channel phenylalkylamine site (Homo sapiens, UniProt O60840+Q01668+Q13698+Q13936); assay: Inhibition of L-type calcium channel phenylalkylamine site (unknown origin) at 10 uM relative to control; type: protein assay
[22] = In vivo agonist activity at beta-2 adrenoceptor in Dunkin-Hartley guinea pig trachea assessed as inhibition of histamine induced bronchoconstriction at 1 nmol/Kg, IT(Intratracheal) measured after 24 hr by Konzett-Roessler methodology relative to control; type: functional; details: Cavia porcellus
[23] = In vivo agonist activity at beta-2 adrenoceptor in Dunkin-Hartley guinea pig trachea assessed as inhibition of histamine induced bronchoconstriction at 0.3 nmol/Kg, IT(Intratracheal) measured after 1 hr by Konzett-Roessler methodology relative to control; type: functional; details: Cavia porcellus
Trachea [24] = assay: Bifunctional antagonist activity at muscarinic M3 receptor /agonist activity at beta-2 adrenoceptor in Dunkin-Hartley guinea pig trachea assessed as inhibition of acetylcholine induced bronchoconstriction at 0.3 nmol/Kg, IT(Intratracheal) measured after 1 hr by Konzett-Roessler methodology relative to control; type: functional; details: Cavia porcellus
Trachea [25] = assay: Bifunctional antagonist activity at muscarinic M3 receptor /agonist activity at beta-2 adrenoceptor in Dunkin-Hartley guinea pig trachea assessed as inhibition of acetylcholine induced bronchoconstriction at 1 nmol/Kg, IT(Intratracheal) measured after 24 hr by Konzett-Roessler methodology relative to control; type: functional; details: Cavia porcellus

Cn1nc(C(=O)OCCCCNC[C@H](O)c2ccc(O)c3[nH]c(=O)ccc23)cc1COc1cccc([C@@H](NC(=O)O[C@H]2CN3CCC2CC3)c2ccccc2)c1
half-life at 1 µM [1]: 30 min
hepatocyte CLint at 1 µM [2]: 33 µL/min/1e6 cells
hepatocyte CLint at 1 µM [3]: 37 µL/min/1e6 cells
hepatocyte CLint at 1 µM [4]: 32 µL/min/1e6 cells
microsomal CLint at 1 µM [5]: 14 µL/min/mg
microsomal CLint at 1 µM [6]: 37 µL/min/mg
half-life at 1 µM [7]: > 120 min
half-life at 1 µM [8]: > 120 min
Papp A→B at 2 h, 10 µM [9]: 2.4 ×10⁻⁶ cm/s
Papp B→A at 2 h, 10 µM [10]: 1.5 ×10⁻⁶ cm/s
Cmax [11]: 28400 ng/g
Tmax [12]: 4.98 min
AUC(0-t) at 72 h [13]: 460 ng·h/mL
AUC(0-inf) [14]: 661 ng·h/mL
Time (Trachea [15]): >225 min
inhibition in vivo at 0.001 µmol/kg (Trachea [16]): 90.1%
inhibition in vivo at 0.001 µmol/kg (Trachea [17]): 90.8%
inhibition [18]: > 65%
inhibition [19]: > 65%
inhibition [20]: > 65%
inhibition at 10 µM [21]: > 65%
inhibition in vivo at 0.001 µmol/kg [22]: 50.1%
inhibition in vivo at 0.0003 µmol/kg [23]: 31.9%
inhibition in vivo at 0.0003 µmol/kg (Trachea [24]): 58.4%
inhibition in vivo at 0.001 µmol/kg (Trachea [25]): 74.8%
